# Measured values: paper PMC9009073, “Transcriptome Analysis of Stephania tetrandra and Characterization of Norcoclaurine-6-O-Methyltransferase Involved in Benzylisoquinoline Alkaloid Biosynthesis” (Frontiers in Plant Science, 2022)
# Tested on: St6OMT2
# Assay: UPLC quantification of (S)-coclaurine formed; Hill function fit
# Assay type: biochemical, Stephania tetrandra
# Details: co-substrate S-adenosyl-L-methionine (1 mM in standard assay); 37°C; PBS; substrate 10–200 μM
compound,measurement,value
Oc1ccc(C[C@@H]2NCCc3cc(O)c(O)cc32)cc1 [(S)-norcoclaurine],Km,28.2 µM
